Test results from patent publication US8796202B2, “Multi-valent poly-Ubl chain inhibitors and methods of use” (City of Hope, priority 2011, dated 2014).
“Also recorded” adds a separate entry of the source. Non-standard residues stand in square brackets, D forms with d. Residues, ends and D or L forms follow the SMILES beside them. ξ: configuration not given here. *: point of attachment. Ile(3ξ) = CCC(C)[C@H](N)C(=O)O; Cbz = O=C(OCc1ccccc1)*

Experiments:
all SUMO isoforms = conditions: reference (7), cited from earlier work
SUMO-3 = SUMO-3 (Homo sapiens, UniProt P55854); test: NMR (HSQC) chemical shift perturbation binding to SUMO-3; conditions: for chemical shift perturbation / binding to SUMO-3: HSQC, SUMO:ligand 1:3 or 1:10
Chain of SUMO-3 (P55854 1-92 limits assumed): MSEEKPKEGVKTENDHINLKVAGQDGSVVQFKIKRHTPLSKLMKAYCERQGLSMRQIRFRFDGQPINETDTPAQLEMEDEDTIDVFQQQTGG
Protocol: NMR studies. All NMR samples contained 10 mM phosphate buffer (pH 7.0) in 90% H2O/10% D2O. NMR spectra were acquired at 25° C. on a Bruker […] NMR spectrometer. All chemicals were dissolved in DMSO. Heteronuclear Single Quantum Coherence (HSQC) spectra were acquired at SUMO:compound ratios of 1:3 or 1:10 for the top scored compounds from virtual ligand screening. Both SUMO-1 and SUMO-2 were examined for their interactions with the compounds. The HSQC spectra were acquired for the protein alone, the protein with addition of 2% DMSO, and the protein in complex with a compound and 2% DMSO. The dissociation constant Kd was estimated by titrating the compound to SUMO-2, followed by recording HSQC spectra at protein:compound ratios of 1:1, 1:2, 1:3, 1:4, 1:5, 1:6, 1:7 and 1:20.
Interactions of the compounds shown in FIG. 4 with SUMO-1 and SUMO-3 were verified by NMR chemical shift perturbation analysis. These compounds generated negligible chemical shift perturbations (CSP) on SUMO-1, but much larger and specific chemical shift perturbations on SUMO-3 (FIGS. 5A and 6). […] Chemical shift perturbation was used to estimate the binding affinity of the representative compound, 333751, to SUMO-3 (20). […] This is not surprising given the much smaller size of the compound than the 10 amino acid residue SIM peptide. The SIM-binding groove on SUMO is very shallow and lacks a deep pocket (8). Since there is a lack of high affinity ligands to bind shallow surface pockets of proteins, it is unlikely that a high affinity small molecule ligand for the SIM binding surface of SUMO can be found.

[1] = molecular target: T1, interaction between poly-SUMO-3 chain and the tandem-SIM peptide (Homo sapiens, UniProt P55854); test: SIM pull-down (ELISA) competition, poly-SUMO-3 chains; type: binding
T1 construct: made in house
T1 sequence (P55854 1-92 limits assumed): as above
T1 sequence (P55854 1-92 limits assumed): as above
Protocol: Poly-SUMO chain formation. Poly-SUMO chains were synthesized by an in vitro SUMOylation reaction (4.375 μM GST-SUMO-3 and His-SUMO-3, 40 nM Ubc9 and E1, and 5 mM ATP in a 100 μl reaction). The reaction was carried out at 37° C. for 4 h and then diluted to 1 mL with phosphate buffered saline (PBS). Poly-SUMO chains were first separated from the His-SUMO-3 monomer by glutathione affinity chromatography. The eluted poly-SUMO chains were subsequently separated from the GST-SUMO-3 monomer by Ni-NTA chromatography. The eluted poly-SUMO chains were dialyzed and concentrated.
(§1) Purification of GST-WT-SIM and GST-SC-SIM. GST-tagged wild-type (GST-WT-SIM) or scrambled SIM sequence (GST-SC-SIM) was subcloned into the pGex4T-S expression vector (Amersham) and over-expressed as an N-terminal GST fusion protein in Escherichia coli strain BL21 (DE3) (Invitrogen) at 37° C. in LB media. […]
(§2) SIM pull-down. […] The plate was read at 450 nm by an ELISA reader after the reaction was stopped by addition of phosphoric acid. Quantifications of all SIM pull-downs were scaled by measurement of GST-WT-SIM pull-down (100%) and GST-SCSIM pull-down (0%). […]
The SIM and control peptides were used in pull-down assays to determine the inhibitory effects of the conjugation of inhibitor to AuNPs. […] The amount of SUMO pulled down by the SIM peptide was detected by enzyme-linked immunosorbent assay (ELISA) in an EIA microtiter plate. […]

[2] = molecular target: interaction between SIM and SUMO-3 (Homo sapiens, UniProt P55854); test: SIM pull-down (ELISA) competition, SUMO-3 monomer; type: binding
Chain of interaction between SIM and SUMO-3 (P55854 1-92 limits assumed): as above
Protocol: as §1, with “media. Once the OD A595 nm reached 0.6, isopropyl 1-thio-[…] (IPTG; 1 mM) was added to the media and the cells were grown for an additional 4 h at 37° C.” for “media.”
as §2
(§3) The SIM and control peptides were used in pull-down assays to determine the inhibitory effects of the conjugation of inhibitor to AuNPs. […] The amount of SUMO pulled down by the SIM peptide was detected by enzyme-linked immunosorbent assay (ELISA) in an EIA microtiter plate. […] Based on the concentrations of SUMO chains and the experimental design, it was determined that the IC50 value is likely larger than the average Kd value of the complex between AuNP and SUMO chains.

[3] = molecular target: interaction between SIM and SUMO-1 (Homo sapiens, UniProt P63165); test: SIM pull-down (ELISA) competition, SUMO-1 monomer; type: binding
Chain of interaction between SIM and SUMO-1 (P63165 1-97 limits assumed): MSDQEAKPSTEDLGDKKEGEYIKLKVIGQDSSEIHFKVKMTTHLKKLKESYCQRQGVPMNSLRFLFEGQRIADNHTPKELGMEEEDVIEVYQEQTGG
Protocol: as §1, with “media. Once the OD A595 nm reached 0.6, isopropyl 1-thio-[…] (IPTG; 1 mM) was added to the media and the cells were grown for an additional 4 h at 37° C.” for “media.”
as §2, §3

| inhibition of SUMO-3 monomer / SIM peptide interaction [2] | inhibition of SUMO-1 monomer / SIM peptide interaction [3] | affinity lower than that between the PIASx SIM and SUMO-2 (SUMO-3; compared with PIASx SIM peptide) | Kd (SUMO-3; estimated from chemical shift change vs ligand:protein ratio) [µM] | Molecule | higher affinity for all SUMO isoforms than other characterized SIM sequences (all SUMO isoforms) [fold] | Kd (all SUMO isoforms; read-out: dissociation constants for all SUMO isoforms) [µM] | chemical shift perturbation / binding to SUMO-3 (SUMO-3) | inhibition of poly-SUMO-3 chain / SIM interaction [1] |
| --- | --- | --- | --- | --- | --- | --- | --- | --- |
| – | – | – | – | KVDVIDLTIE [PIASx SIM] | ~10 | 4 to 8 | – | – |
| not significantly inhibitory | not significantly inhibitory | – | – | CCC(C)[C@H](NC(=O)/C=C/c1ccc(NC(=O)CCS)cc1)C(=O)N[C@@H](CC(C)C)C(=O)O (stereo partly drawn) [derivative 2] | – | – | induced chemical shift perturbation on the same surface of SUMO-3 and to a similar extent | nor did it inhibit poly-SUMO chain and SIM interactions |
| – | – | more than 200 fold | 1200 ± 400 | CCC(C)[C@H](NC(=O)OCc1ccccc1)C(=O)N[C@@H](CC(C)C)C(=O)O (stereo partly drawn) [compound 333751] (Cbz-[Ile(3ξ)]-Leu-OH) | – | – | among the strongest; also recorded: induced chemical shift perturbation on the same surface of SUMO-3 and to a similar extent | – |
